Values quoted from earlier work as cited in US10493103B2, “Peroxide formulations and methods and applicators for using the same” (ACLARIS THERAPEUTICS, INC., priority 2014, dated 2019).
Like-named read-outs stand apart in the source and are kept apart here.

Test system: seborrheic keratosis
[1] = applied once daily for 16 weeks

## CC(O)C(=O)O.N (stereo not shown) [ammonium lactate]
In vivo
  effectiveness in seborrheic keratosis: ineffective

## C=C1/C(=C\C=C2/CCC[C@]3(C)[C@@H]([C@H](C)/C=C/[C@@H](O)C4CC4)CC[C@@H]23)C[C@@H](O)C[C@@H]1O [calcipotriene ointment, calcipotriene]
[1]
  effectiveness in seborrheic keratosis: ineffective

## CC(C)Cn1cnc2c(N)nc3ccccc3c21 [imiquimod cream, imiquimod]
[1]
  effectiveness in seborrheic keratosis: ineffective

## CCOC(=O)c1ccc(C#Cc2ccc3c(c2)C(C)(C)CCS3)nc1 [tazarotene 0.1%, tazarotene]
Applied twice daily
  complications of therapy: burning, pruritus and redness
Applied twice daily, off-label, 7/15 subjects
  subjects with efficacy: 47%

## CCOC(=O)c1ccc(C#Cc2ccc3c(c2)C(C)(C)CCS3)nc1 [tazarotene cream, tazarotene]
[1]
  effectiveness in seborrheic keratosis: ineffective

## C=C1CC[C@H](O)C/C1=C/C=C1\CCC[C@]2(C)[C@@H]([C@H](C)CCCC(C)C)CC[C@@H]12 [topical vitamin D3 ointment, vitamin D3]
Once or twice daily for an average of 7.3 months (range 3-12 months)
  patients with an 80% or more improvement in lesions: 30%
